Results on one compound are retold here after patent US20110160266A1, “Novel Anti-Arrhythmia Agent” (THE UAB RESEARCH FOUNDATION, priority 2008, published 2011).

pIC50: −log10 of the molar value. “Also recorded” adds a separate entry of the source. Where a name gives a salt, the structure may show the parent alone.

Assay [1] concerns rat left atria. The assay is described as follows: Reversal or prevention of 2-APB-induced SMA in superfused rat left atria. The method, then: (A) Titration curve of ranolazine reversal of SMA in superfused left atrial appendage. Superfused appendages (n=7) were treated with 2-APB and following the appearance of SMA they were titrated with increasing concentrations of ranolazine for 3-5 min at any concentration. Rates of SMA in the absence of pacing were recorded. (B) Typical raw mechanical data for an appendage treated with 2-APB and then with 0, 10 or 80 μM ranolazine. All data are in the absence of pacing. […]
To test whether an anion transport inhibitor affected SMA, atria (n=7) were paced at 0.1 Hz in KH and exposed to 15 μM 2-APB. Following the appearance of SMA, they were titrated with 100 to 400 μM DIDS for 3 to 5 min at each concentration. Whether SMA occurred at the end of each titration period was recorded.
In these experiments, a 2-APB model system was used to simulate abnormal automaticity. Specifically, paced (0.1 Hz) superfused left atria were treated with 2-APB (20 μM) and the pacing stimulus was stopped after the appearance of SMA. SKF-96365 (25 μM) was then added to the superfusate and the effect on SMA was measured.
Additional experiments determined the concentration-dependence of SKF-96365 inhibtion of SMA. These experiments were performed as described above except that various concentrations of SKF-96365 were added to the left atrial superfusate (about 10-65 μM).
In these experiments, a 2-APB model system was used to simulate abnormal automaticity. Specifically, superfused left atria were exposed to 0 or to 50 μM SKF-96365 for 10 min. Following this pre-incubation, muscles were titrated with increasing concentrations of 2-APB (0-30 μM) and the rate of SMA was measured about 10 min later in the absence of pacing.

Assay [2] concerns rat left atria. The assay is described as follows: Suppression of STA induced by 2-APB plus BayK 8644 or isoproterenol in left atria. The method, then:
3 Hz-paced left atria (n=9 per group) were superfused (i) in Krebs-Henseleit alone or (ii) they were treated with 20 μM 2-APB for 10 min, (iii) with 300 nM BayK 8644 for 10 min and with 20 μM 2-APB for 10 min, or (iv) they were treated with 300 nM BayK 8644 and 20 μM 2-APB for 10 min, then with 70 μM zatebradine (3-[3-[[2-(3,4-Dimethoxyphenyl)ethyl]methyl amino]propyl]-1,3,4,5-tetrahydro-7,8,-dimethoxy-2H-3-benzazepin-2-one hydrochloride) for 10 min (Baruscotti et al., 2005). Pacing was interrupted at these times and rates of SMA were recorded.
Left atria (n=9) were paced at 0.1 Hz, treated with 300 nM BayK 8644 for 5 min, then with 20 μM 2-APB for 10 min, and the pacing stimulus was stopped. These preparations then were incubated with six increasing concentrations of zatebradine (10-100 μM) for 3-5 min at each concentration, and rates of SMA were recorded. Untreated right atria (n=9) also were titrated with zatebradine and its effect on contraction frequency was recorded.
To test whether zatebradine affects left atrial force of contraction, two groups of left atria (n=9 per group) were paced at 3 Hz and treated with 300 nM BayK 8644. Five minutes later one group was incubated with six increasing concentrations of zatebradine (10-100 μM) for 3-5 min at each concentration, and forces of contraction were recorded. A second group was treated with BayK 8644 but not zatebradine, and forces of contraction were recorded at corresponding times.
To test whether zatebradine affects the SMA occurring in the presence of 2-APB and isoproterenol, left atria (n=7) were paced at 0.1 Hz, treated with 30 nM isoproterenol for 5 min, then with 20 μM 2-APB for 10 min, and the pacing stimulus was stopped. Rates of SMA were recorded, these left atria were exposed to 70 μM zatebradine for 10 min, and rates of SMA were recorded again. A group of right atria (n=7) also were exposed to 30 nM isoproterenol for 5 min and then to 70 μM zatebradine for 10 min. Right atrial contraction frequency was recorded at these two times.
To test whether ZD-7288, an If inhibitor structurally unrelated to zatebradine (Baruscotti et al., 2005; Sanders et al., 2006) affects the SMA occurring in the presence of 2-APB and BayK 8644, rat left atria (n=7) were treated with 300 nM BayK 8644 for 5 min, then with 20 μM 2-APB for 10 min, and the rates of ectopic activity were recorded. These atria then were incubated with six increasing concentrations of ZD-7288 (10-100 μM) for 3-5 min at each concentration, and the rates of SMA were recorded. Right atria (n=7) were titrated similarly with ZD-7288 (0-100 μM) and the change in their contraction frequency was recorded.
In these experiments, a 2-APB model system was used to simulate tachycardic abnormal automaticity. Specifically, superfused left atria were treated sequentially with 300 nM BayK 8644, an activator of voltage-dependent calcium entry, which loads myocytes with calcium, and then with 2-APB (20 μM) to activate the putative myocyte system for abnormal automaticity. […] SKF-96365 (10 μM) was added to the superfusate. SKF-96365 reversed STA in these left atria within 2-3 min and the muscle became quiescent in the absence of pacing (FIG. 34, “Rest”).
Additional experiments determined the concentration-dependence of SKF-96365 inhibition of STA. These experiments were performed as described above except that various concentrations of SKF-96365 were added to the left atrial superfusate (about 10-70 μM). Exposing left atria to various concentrations of SKF-96365 reversed STA (FIG. 35).

Assay [3] relates to rat left atria.
The test system of assay [4] is rat left atria. The assay is described as follows: tissue or blood. As to conditions: 5 min, read-out: IC50 for suppression of triggered ectopic contractions induced by ATX II.
For assay [5], the system named is rat left atria. In words: Chaotic, fibrillation-like activity in left atria at 37° C., paced at 6 Hz.
Description: In this example, it was evaluated whether SKF-96365 could reverse chaotic, fibrillation-like activity. In these experiments, left atria were superfused at 37° C., paced at 6 Hz (a physiological rate under these conditions), exposed to 300 nM BayK 8644 to load calcium and then to 20 μM 2-APB to induce tachycardic activity.

As for `COc1ccc(CCCOC(Cn2ccnc2)c2ccc(OC)cc2)cc1` (stereo not drawn) [SKF-96365, 1-[β-(3-(4-Methoxyphenyl)propoxy)-4-methoxyphenethyl]-1H-imidazole hydrochloride], the “effect on normal excitation-contraction coupling” value was “did not affect normal excitation-contraction coupling” in the assay on rat left atria [1] (25 μM SKF-96365, 0.1 Hz pacing restored after SMA suppression) and “did not affect normal excitation-contraction coupling” with rat left atria [2] (after STA reversal, 0.1 Hz pacing restored). For the same compound, the “time to suppression of SMA” value in the assay with rat left atria [1] (25 μM SKF-96365, 2-APB-treated left atria, absence of pacing) was 2 to 3 min; in the assay with rat left atria [1] (various concentrations of SKF-96365 (about 10-65 μM)) it was 2 to 3 min. For the same compound, the “prevention of SMA by pre-treatment” value in the assay with rat left atria [1] (50 μM SKF-96365 for 10 min, then 2-APB 0-30 μM, measured ~10 min later without pacing, hydrochloride) is given as “prevents the appearance of SMA”. In addition, the negative-log IC50 (pIC50) in the assay on rat left atria [1] (Rattus norvegicus, read-out: IC50 for inhibition (reversal) of SMA) was about 4.82; in the assay with rat left atria [4], about 4.92. Also, the “effect on 2-APB-induced sporadic ectopic activity (SMA)” value in the assay on rat left atria [1] (titration after appearance of SMA, absence of pacing) is “suppressed SMA”. Moreover, in the assay with rat left atria [2] (300 nM BayK 8644 + 20 μM 2-APB, SKF-96365 (10 μM), absence of pacing), the “time to reversal of STA” value was in the range of 2 to 3 min. In the assay with rat left atria [2] (300 nM BayK 8644 + 20 μM 2-APB, zatebradine 70 μM, ZD-7288 10-100 μM, SKF-96365 about 10-70 μM, hydrochloride), the “effect on STA initiated by BayK 8644 and 2-APB” value is listed as “reverses STA”. Further, in the assay on rat left atria [3] (25 nM ATX II, 20 μM SKF-96365 for ~5 min, 1 Hz pacing, hydrochloride), the “triggered activity after exposure to SKF-96365” value is “shows no triggered activity; also recorded: shows no triggered events; also recorded: suppresses triggered activity”. The “effect on left atrial force of contraction / mechanical performance (titration)” value in the assay on rat left atria [3] (25 nM ATX II, 1 Hz-paced, ~5 min at each concentration, hydrochloride) is reported as “did not decrease the mechanical performance; also recorded: did not affect left atrial force of contraction”. Besides, the “prevention of triggered activity by pre-treatment” value in the assay with rat left atria [3] (SKF-96365 20 μM (legend 20-25 μM) for ~10 min before 25 nM ATX II, recorded over 10-15 min, hydrochloride) is recorded as “prevents the appearance of triggered activity; also recorded: triggered activity does not occur”. Further, in the assay on rat left atria [3] (SKF-96365 added to superfusate of left atria undergoing ATX II triggered activity), the “time to reversal of triggered activity” value lay in the range of 2 to 5 min. Besides, the “time to restoration of normal patterns of excitation-contraction” value with rat left atria [5] (~40 μM SKF-96365, 300 nM BayK 8644 + 20 μM 2-APB) fell in the range of 5 to 8 min. Also, in the assay with rat left atria [5] (~40 μM SKF-96365, hydrochloride), the “effect on chaotic, fibrillation-like mechanical activity” value is “restores normal patterns of excitation-contraction; also recorded: no longer contracted chaotically”.
